# Assay results published in patent publication US20230085307A1, “PYRIDAZINONE COMPOUND AND HERBICIDE” (NISSAN CHEMICAL CORPORATION, priority 2019, published 2023).
# Key:
# velvetleaf [1] = test: Test Example 4: herbicidal effect by soil treatment (Table 19, symbol M); type: in vivo, velvetleaf (Abutilon theophrasti)
# In short: (§1)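 Pre-emergence style soil spray: seeds under ~1.5 cm sterilized diluvial soil received a uniform coat of emulsion diluted to the predetermined herbicide amount. Greenhouse 25–30° C; readout at week three on previously defined criteria.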
# Italian ryegrass [2] = test: Test Example 5: herbicidal effect by foliage application, plastic box (Table 20, symbol K); type: in vivo, Italian ryegrass (Lolium multiflorum); settings: foliage application, 320 g/ha, 3 weeks after application
# In short: (§2)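 Plants were sown into sterilized diluvial soil under about 1.5 cm cover and kept in a greenhouse at 25° C. to 30° C. Fourteen days on, foliage received an even spray of the diluted emulsion. Herbicidal or crop effect was judged three weeks afterwards.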
# green foxtail [3] = test: Test Example 5: herbicidal effect by foliage application, plastic box (Table 20, symbol G); type: in vivo, green foxtail (Setaria viridis); settings: foliage application, 320 g/ha, 3 weeks after application
# In short: as §2
# persian speedwell [4] = test: Test Example 5: herbicidal effect by foliage application, plastic box (Table 20, symbol R); type: in vivo, Persian speedwell (Veronica persica); settings: foliage application, 320 g/ha, 3 weeks after application
# In short: as §2
# lambsquarters [5] = test: Test Example 4: herbicidal effect by soil treatment (Table 19, symbol O); type: in vivo, lambsquarters (Chenopodium album)
# In short: as §1
# lambsquarters [6] = test: Test Example 5: herbicidal effect by foliage application, plastic box (Table 20, symbol O); type: in vivo, lambsquarters (Chenopodium album); settings: foliage application, 320 g/ha, 3 weeks after application
# In short: as §2
# persian speedwell [7] = test: Test Example 4: herbicidal effect by soil treatment (Table 19, symbol R); type: in vivo, Persian speedwell (Veronica persica)
# In short: as §1
# barnyard grass [8] = test: Test Example 4: herbicidal effect by soil treatment (Table 19, symbol H); type: in vivo, barnyard grass (Echinochloa crus-galli)
# In short: as §1
# windgrass [9] = test: Test Example 4: herbicidal effect by soil treatment (Table 19, symbol L); type: in vivo, windgrass (Apera spica-venti)
# In short: as §1
# rice flat sedge = test: Test Example 3: herbicidal effect by foliage application, Wagner pot (Table 18, symbol E); type: in vivo, rice flat sedge (Cyperus iria)
# In short: (§3)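 Plants were sown in alluvial soil held under 0.1–0.5 cm standing water and grown 14 days in a greenhouse at 25–30 °C. An emulsifiable formulation, water-diluted to the set dose, was then sprayed onto the foliage, and effects were scored three weeks later using previously defined criteria.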
# barnyard grass [10] = test: Test Example 5: herbicidal effect by foliage application, plastic box (Table 20, symbol H); type: in vivo, barnyard grass (Echinochloa crus-galli); settings: foliage application, 320 g/ha, 3 weeks after application
# In short: as §2
# blackgrass [11] = test: Test Example 5: herbicidal effect by foliage application, plastic box (Table 20, symbol J); type: in vivo, blackgrass (Alopecurus myosuroides); settings: foliage application, 320 g/ha, 3 weeks after application
# In short: as §2
# Chinese sprangletop = test: Test Example 3: herbicidal effect by foliage application, Wagner pot (Table 18, symbol D); type: in vivo, chinese sprangletop (Leptochloa chinensis)
# In short: as §3
# blackgrass [12] = test: Test Example 4: herbicidal effect by soil treatment (Table 19, symbol J); type: in vivo, blackgrass (Alopecurus myosuroides)
# In short: as §1
# late watergrass = test: Test Example 1: herbicidal activity, application before weed generation under submerged conditions (Table 16, symbol A); type: in vivo, late watergrass (Echinochloa oryzicola); settings: 320 g/ha applied herbicide
# In short: (§4)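 Alluvial soil was flooded to 4 cm depth, weed seeds were sown mixed and 2.5-leaf rice seedlings were transplanted. On sowing day, the compound's emulsion, diluted in water to a set dose, was applied to the water surface. Plants grew at 25–30 °C and were scored 0–5 after three weeks.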
# southern crabgrass [13] = test: Test Example 5: herbicidal effect by foliage application, plastic box (Table 20, symbol F); type: in vivo, southern crabgrass (Digitaria ciliaris); settings: foliage application, 320 g/ha, 3 weeks after application
# In short: as §2
# southern crabgrass [14] = test: Test Example 4: herbicidal effect by soil treatment (Table 19, symbol F); type: in vivo, southern crabgrass (Digitaria ciliaris)
# In short: as §1
# wild oat [15] = test: Test Example 5: herbicidal effect by foliage application, plastic box (Table 20, symbol I); type: in vivo, wild oat (Avena fatua); settings: foliage application, 320 g/ha, 3 weeks after application
# In short: as §2
# oval-leafed pondweed = test: Test Example 1: herbicidal activity, application before weed generation under submerged conditions (Table 16, symbol C); type: in vivo, oval-leafed pondweed (Monochoria vaginalis); settings: 320 g/ha applied herbicide
# In short: as §4
# wild oat [16] = test: Test Example 4: herbicidal effect by soil treatment (Table 19, symbol I); type: in vivo, wild oat (Avena fatua)
# In short: as §1
# Japanese bulrush = test: Test Example 1: herbicidal activity, application before weed generation under submerged conditions (Table 16, symbol B); type: in vivo, Japanese bulrush (Schoenoplectus juncoides); settings: 320 g/ha applied herbicide
# In short: as §4
# Italian ryegrass [17] = test: Test Example 4: herbicidal effect by soil treatment (Table 19, symbol K); type: in vivo, Italian ryegrass (Lolium multiflorum)
# In short: as §1
# redroot pigweed = test: Test Example 4: herbicidal effect by soil treatment (Table 19, symbol N); type: in vivo, redroot pigweed (Amaranthus retroflexus)
# In short: as §1
# barnyard grass [18] = test: Test Example 3: herbicidal effect by foliage application, Wagner pot (Table 18, symbol H); type: in vivo, barnyard grass (Echinochloa crus-galli)
# In short: as §3
# velvetleaf [19] = test: Test Example 5: herbicidal effect by foliage application, plastic box (Table 20, symbol M); type: in vivo, velvetleaf (Abutilon theophrasti); settings: foliage application, 320 g/ha, 3 weeks after application
# In short: as §2
# green foxtail [20] = test: Test Example 4: herbicidal effect by soil treatment (Table 19, symbol G); type: in vivo, green foxtail (Setaria viridis)
# In short: as §1
# windgrass [21] = test: Test Example 5: herbicidal effect by foliage application, plastic box (Table 20, symbol L); type: in vivo, windgrass (Apera spica-venti); settings: foliage application, 320 g/ha, 3 weeks after application
# In short: as §2
# chickweed = test: Test Example 4: herbicidal effect by soil treatment (Table 19, symbol P); type: in vivo, common chickweed (Stellaria media); settings: amount of applied herbicide 320 g/ha
# In short: as §1
# [22] = amount of applied herbicide 320 g/ha
smiles,measurement,setting,value
C=CCSCc1ccc(-c2sc3ccccc3c2-c2c(O)c(C)nn(C)c2=O)cc1 [1-245],"M: velvetleaf, herbicidal effect rating",velvetleaf [1]; AAH 320 g/ha,0 (Herbicidal rate of 5% or less (almost no effect))
same,effect on Italian ryegrass (K),Italian ryegrass [2],4 (Herbicidal rate of 70% or more and less than 90%)
same,effect on green foxtail (G),green foxtail [3],4 (Herbicidal rate of 70% or more and less than 90%)
same,effect on persian speedwell (R),persian speedwell [4],5 (Herbicidal rate of 90% or more (almost completely withered))
same,"O: lambsquarters, herbicidal effect rating",lambsquarters [5]; AAH 320 g/ha,3 (Herbicidal rate of 40% or more and less than 70%)
same,effect on lambsquarters (O),lambsquarters [6],5 (Herbicidal rate of 90% or more (almost completely withered))
same,"R: persian speedwell, herbicidal effect rating",persian speedwell [7]; AAH 320 g/ha,4 (Herbicidal rate of 70% or more and less than 90%)
same,"H: barnyard grass, herbicidal effect rating",barnyard grass [8]; AAH 320 g/ha,0 (Herbicidal rate of 5% or less (almost no effect))
same,"L: windgrass, herbicidal effect rating",windgrass [9]; AAH 320 g/ha,0 (Herbicidal rate of 5% or less (almost no effect))
same,"herbicidal effect on E (rice flat sedge), rating 0-5",rice flat sedge; 320 g/ha,3 (Herbicidal rate of 40% or more and less than 70%)
same,effect on barnyard grass (H),barnyard grass [10],5 (Herbicidal rate of 90% or more (almost completely withered))
same,effect on blackgrass (J),blackgrass [11],3 (Herbicidal rate of 40% or more and less than 70%)
same,"herbicidal effect on D (Chinese sprangletop), rating 0-5",Chinese sprangletop; 320 g/ha,3 (Herbicidal rate of 40% or more and less than 70%)
same,"J: blackgrass, herbicidal effect rating",blackgrass [12]; AAH 320 g/ha,0 (Herbicidal rate of 5% or less (almost no effect))
same,Herbicidal effect on A: late watergrass (grade 0-5),late watergrass,3 (Herbicidal rate of 40% or more and less than 70%)
same,effect on southern crabgrass (F),southern crabgrass [13],3 (Herbicidal rate of 40% or more and less than 70%)
same,"F: southern crabgrass, herbicidal effect rating",southern crabgrass [14]; AAH 320 g/ha,0 (Herbicidal rate of 5% or less (almost no effect))
same,effect on wild oat (I),wild oat [15],1 (Herbicidal rate of 5% or more and less than 20%)
same,Herbicidal effect on C: oval-leafed pondweed (grade 0-5),oval-leafed pondweed,0 (Herbicidal rate of 5% or less (almost no effect))
same,"I: wild oat, herbicidal effect rating",wild oat [16]; AAH 320 g/ha,0 (Herbicidal rate of 5% or less (almost no effect))
same,Herbicidal effect on B: Japanese bulrush (grade 0-5),Japanese bulrush,3 (Herbicidal rate of 40% or more and less than 70%)
same,"K: Italian ryegrass, herbicidal effect rating",Italian ryegrass [17]; AAH 320 g/ha,2 (Herbicidal rate of 20% or more and less than 40%)
same,"N: redroot pigweed, herbicidal effect rating",redroot pigweed; AAH 320 g/ha,3 (Herbicidal rate of 40% or more and less than 70%)
same,"herbicidal effect on H (barnyard grass), rating 0-5",barnyard grass [18]; 320 g/ha,5 (Herbicidal rate of 90% or more (almost completely withered))
same,effect on velvetleaf (M),velvetleaf [19],5 (Herbicidal rate of 90% or more (almost completely withered))
same,"G: green foxtail, herbicidal effect rating",green foxtail [20]; AAH 320 g/ha,0 (Herbicidal rate of 5% or less (almost no effect))
same,effect on windgrass (L),windgrass [21],4 (Herbicidal rate of 70% or more and less than 90%)
COc1ccc(-c2sc3ccc(F)cc3c2-c2c(O)c(C)nn(C)c2=O)cc1Cl [2-370],"herbicidal effect, M: velvetleaf",velvetleaf [1]; [22],1 (Herbicidal rate of 5% or more and less than 20%)
same,"herbicidal effect, O: lambsquarters",lambsquarters [5]; [22],4 (Herbicidal rate of 70% or more and less than 90%)
same,"herbicidal effect, R: persian speedwell",persian speedwell [7]; [22],4 (Herbicidal rate of 70% or more and less than 90%)
same,"herbicidal effect, P: chickweed",chickweed,3 (Herbicidal rate of 40% or more and less than 70%)
same,"herbicidal effect, H: barnyard grass",barnyard grass [8]; [22],0 (Herbicidal rate of 5% or less (almost no effect))
same,"herbicidal effect, L: windgrass",windgrass [9]; [22],0 (Herbicidal rate of 5% or less (almost no effect))
same,herbicidal effect on E: rice flat sedge,rice flat sedge; [22],5 (Herbicidal rate of 90% or more (almost completely withered))
same,herbicidal effect on D: Chinese sprangletop,Chinese sprangletop; [22],2 (Herbicidal rate of 20% or more and less than 40%)
same,"herbicidal effect, J: blackgrass",blackgrass [12]; [22],0 (Herbicidal rate of 5% or less (almost no effect))
same,Herbicidal effect on A: late watergrass (grade 0-5),late watergrass,3 (Herbicidal rate of 40% or more and less than 70%)
same,"herbicidal effect, F: southern crabgrass",southern crabgrass [14]; [22],0 (Herbicidal rate of 5% or less (almost no effect))
same,Herbicidal effect on C: oval-leafed pondweed (grade 0-5),oval-leafed pondweed,0 (Herbicidal rate of 5% or less (almost no effect))
same,"herbicidal effect, I: wild oat",wild oat [16]; [22],0 (Herbicidal rate of 5% or less (almost no effect))
same,Herbicidal effect on B: Japanese bulrush (grade 0-5),Japanese bulrush,0 (Herbicidal rate of 5% or less (almost no effect))
same,"herbicidal effect, K: Italian ryegrass",Italian ryegrass [17]; [22],0 (Herbicidal rate of 5% or less (almost no effect))
same,"herbicidal effect, N: redroot pigweed",redroot pigweed; [22],2 (Herbicidal rate of 20% or more and less than 40%)
same,herbicidal effect on H: barnyard grass,barnyard grass [18]; [22],3 (Herbicidal rate of 40% or more and less than 70%)
same,"herbicidal effect, G: green foxtail",green foxtail [20]; [22],0 (Herbicidal rate of 5% or less (almost no effect))
